The source of these data is patent publication US11180504B2 (ORCHID PHARMA LTD., priority 2016, dated 2021).

The subject of experiment [1] is carbapenemase producing K. pneumoniae. Description: MIC by broth micro-dilution (CLSI), carbapenemase producing K. pneumoniae. Format: cell-based, Klebsiella pneumoniae.
Experiment [2] relates to carbapenem sensitive Pseudomonas aeruginosa. Description: MIC by broth micro-dilution (CLSI), carbapenem sensitive P. aeruginosa. In kind it is cell-based. (In general: In broth dilution the organism is exposed to a series of concentrations in liquid medium.)
For experiment [3], the system named is methicillin-sensitive Staphylococcus aureus. Description: MIC by broth micro-dilution (CLSI), methicillin-sensitive S. aureus. In kind it is cell-based. The settings on record: MSSA S. aureus ATCC29213.
Experiment [4] concerns carbapenem sensitive Escherichia coli. Description: MIC by broth micro-dilution (CLSI), carbapenem sensitive E. coli. Format: cell-based.
Setting [5] is: KPC-2 K. pneumoniae ATCC BAA-1705.
Where [6] appears, read: Meropenem susceptible P. aeruginosa ATCC27853.
Setting [7] is: Klebsiella pneumoniae, ATCCBAA1705, KPC-2 K. pneumoniae ATCC BAA-1705, read-out: MIC.
The mark [8] stands for this setting: Pseudomonas aeruginosa, ATCC27853, Meropenem susceptible P. aeruginosa ATCC27853, read-out: MIC.
Setting [9] is: Staphylococcus aureus, ATCC 29213 / MSSA, read-out: MIC.
Setting [10] is: Escherichia coli, ATCC25922, ESBL −ve E. coli ATCC25922, read-out: MIC.

In brackets after ≈: the same amount, converted by molar mass. Where two headings read alike, the source gives them in different places. Bounds are passed on as bounds.

`C[C@@H](NC(=O)Cn1cnnn1)[C@H]1C(=O)N2C(C(=O)O)=C(S[C@@H]3CN[C@H](C(=O)N4CCC(C(=O)NCC(O)CN)CC4)C3)[C@H](C)[C@H]12` (single isomer, unassigned) [Example 573]: the minimal inhibitory concentration (MIC) worked out at 2 µg/mL (≈ 3.08 µM) in experiment [1] (setting [5]), 1 µg/mL (≈ 1.54 µM) in experiment [2] (setting [6]), 4 µg/mL (≈ 6.17 µM) in experiment [3] and 0.125 µg/mL (≈ 0.193 µM) in experiment [4] (ESBL −ve E. coli ATCC25922).

For `C[C@@H](NC(=O)Cn1cnnn1)[C@H]1C(=O)N2C(C(=O)O)=C(S[C@@H]3CN[C@H](C(=O)N4CCO[C@H](CN)C4)C3)[C@H](C)[C@H]12` [Example 460, (4R,5S,5R)-6-((R)-1-(2-(1H-tetrazol-1-yl)acetamido)ethyl)-3-((3S,5S)-5-((R)-2-(aminomethyl)morpholine-4-carbonyl)pyrrolidin-3-ylthio)-4-methyl-7-oxo-1-azabicyclo[3.2.0]hept-2-ene-2-carboxylic acid], the MIC in experiment [1] (setting [7]) stood at 2 µg/mL (≈ 3.55 µM); in experiment [2] (setting [8]), 4 µg/mL (≈ 7.1 µM); in experiment [3] (setting [9]) it was 4 µg/mL (≈ 7.1 µM); in experiment [4] (setting [10]), 0.5 µg/mL (≈ 0.887 µM).

For the compound `C[C@@H](NC(=O)Cn1cnnn1)[C@H]1C(=O)N2C(C(=O)O)=C(S[C@@H]3CN[C@H](C(=O)N4C5CCC4CC4(CCNC4)C5)C3)[C@H](C)[C@H]12` (stereo partly drawn) [Example 377, (4R,5S,6R)-6-((R)-1-(2-(1H-tetrazol-1-yl)acetamido)ethyl)-3-((3S,5S)-5-(8-azaspiro[bicyclo[3.2.1]octane-3,3′-pyrrolidine]-8-ylcarbonyl)pyrrolidin-3-ylthio)-4-methyl-7-oxo-1-azabicyclo[3.2.0]hept-2-ene-2-carboxylic acid], the MIC in experiment [1] (Klebsiella pneumoniae, ATCCBAA1705) turned out to be 2 µg/mL (≈ 3.26 µM); in experiment [2] (setting [8]), 8 µg/mL (≈ 13 µM); in experiment [3] (setting [9]) it was 4 µg/mL (≈ 6.52 µM); in experiment [4] (setting [10]) it was 0.25 µg/mL (≈ 0.407 µM).

Take `C[C@@H](NC(=O)Cn1cnnn1)[C@H]1C(=O)N2C(C(=O)O)=C(S[C@@H]3CN[C@H](C(=O)N4CCC(N)C(F)C4)C3)[C@H](C)[C@H]12` (stereo partly drawn) [Example 433, (4R,5S,6R)-6-((R)-1-(2-(1H-tetrazol-1-yl)acetamido)ethyl)-3-((3S,5S)-5-(4-amino-3-fluoropiperidine-1-carbonyl)pyrrolidin-3-ylthio)-4-methyl-7-oxo-1-azabicyclo[3.2.0]hept-2-ene-2-carboxylic acid]: the minimum inhibitory concentration (MIC) came to 1 µg/mL (≈ 1.77 µM) in experiment [1] (setting [5]), 1 µg/mL (≈ 1.77 µM) in experiment [2] (setting [6]), 2 µg/mL (≈ 3.54 µM) in experiment [3] and 0.25 µg/mL (≈ 0.442 µM) in experiment [4] (ESBL −ve E. coli ATCC25922).

For `CNCC(=O)N[C@H](C)[C@H]1C(=O)N2C(C(=O)O)=C(SC[C@H](N)C(=O)N3CC[C@@H](N)C3)[C@H](C)[C@H]12` [Example 273], the minimal inhibitory concentration (MIC) came to 32 µg/mL (≈ 68.3 µM) in experiment [1] (setting [7]), 128 µg/mL (≈ 273 µM) in experiment [2] (setting [8]), 128 µg/mL (≈ 273 µM) in experiment [3] (setting [9]) and 16 µg/mL (≈ 34.1 µM) in experiment [4] (setting [10]).

Take `C[C@@H](NC(=O)Cn1cnnn1)C1C(=O)N2C(C(=O)O)=C(S[C@@H]3CN[C@H](C(=O)N4CCN(C[C@@H](F)CN)CC4)C3)[C@H](C)C12` (stereo in doubt) [Example 462, (4R,5S,6R)-6-((R)-1-(2-(1H-tetrazol-1-yl)acetamido)ethyl)-3-((3S,5S)-5-(4-((S)-3-amino-2-fluoropropyl)piperazine-1-carbonyl)pyrrolidin-3-ylthio)-4-methyl-7-oxo-1-azabicyclo[3.2.0]hept-2-ene-2-carboxylic acid]: the minimal inhibitory concentration (MIC) was 1 µg/mL (≈ 1.64 µM) in experiment [1] (setting [7]), 2 µg/mL (≈ 3.29 µM) in experiment [2] (setting [8]), 4 µg/mL (≈ 6.57 µM) in experiment [3] (setting [9]) and 0.25 µg/mL (≈ 0.411 µM) in experiment [4] (setting [10]).

Consider `C[C@@H](NC(=O)Cn1cnnn1)[C@H]1C(=O)N2C(C(=O)O)=C(S[C@@H]3CN[C@H](C(=O)N4CC5CCNCC5(CO)C4)C3)[C@H](C)[C@H]12` (single isomer, unassigned) [Example 539], for which the MIC in experiment [1] (setting [7]) came out at 1 µg/mL (≈ 1.66 µM); in experiment [2] (setting [8]), 2 µg/mL (≈ 3.31 µM); in experiment [3] (setting [9]), 4 µg/mL (≈ 6.63 µM); in experiment [4] (setting [10]), 0.25 µg/mL (≈ 0.414 µM).

Take `C[C@@H](NC(=O)Cn1cnnn1)[C@H]1C(=O)N2C(C(=O)O)=C(S[C@@H]3CN[C@H](C(=O)N4CCN(C(=N)N)CC4)C3)[C@H](C)[C@H]12` [Example 367, (4R,5S,6R)-6-((R)-1-(2-(1H-tetrazol-1-yl)acetamido)ethyl)-3-((3S,5S)-5-(4-carbamimidoylpiperazine-1-carbonyl)pyrrolidin-3-ylthio)-4-methyl-7-oxo-1-azabicyclo[3.2.0]hept-2-ene-2-carboxylic acid]: the MIC in experiment [1] (setting [7]) stood at 2 µg/mL (≈ 3.47 µM); in experiment [2] (setting [8]), 1 µg/mL (≈ 1.74 µM); in experiment [3] (setting [9]), 2 µg/mL (≈ 3.47 µM); in experiment [4] (setting [10]), 0.25 µg/mL (≈ 0.434 µM).

Take `C[C@@H](NC(=O)Cn1cnnn1)[C@H]1C(=O)N2C(C(=O)O)=C(S[C@@H]3CN[C@H](C(=O)N4CCC5CN(C[C@@H](O)CN)CCC54)C3)[C@H](C)[C@H]12` (single isomer, unassigned) [Example 521]: the MIC in experiment [1] (setting [5]) is 0.5 µg/mL (≈ 0.773 µM); in experiment [2] (setting [8]), 2 µg/mL (≈ 3.09 µM); in experiment [3] (setting [9]), 2 µg/mL (≈ 3.09 µM); in experiment [4] (setting [10]), 0.5 µg/mL (≈ 0.773 µM).

Turning to `CCCCN[C@H](C)[C@H]1C(=O)N2C(C(=O)O)=C(S[C@@H]3CN[C@H](C(=O)N(C)C)C3)[C@H](C)[C@H]12` [Example 274], the MIC in experiment [1] (setting [7]) was 16 µg/mL (≈ 36.5 µM); in experiment [2] (setting [8]) it was above 128 µg/mL; in experiment [3] (setting [9]) it was 32 µg/mL (≈ 73 µM); in experiment [4] (setting [10]), 16 µg/mL (≈ 36.5 µM).

As for `C[C@@H](NC(=O)Cn1cnnn1)[C@H]1C(=O)N2C(C(=O)O)=C(S[C@@H]3CN[C@H](C(=O)N4CCC5(CCNCC5)C4)C3)[C@H](C)[C@H]12` [Example 499, (4R,5S,6R)-6-((R)-1-(2-(1H-tetrazol-1-yl)acetamido)ethyl)-3-((3S,5S)-5-(2,8-diazaspiro[4.5]decane-2-carbonyl)pyrrolidin-3-ylthio)-4-methyl-7-oxo-1-azabicyclo[3.2.0]hept-2-ene-2-carboxylic acid], the minimum inhibitory concentration (MIC) in experiment [1] (setting [7]) is 1 µg/mL (≈ 1.7 µM); in experiment [2] (setting [8]), 1 µg/mL (≈ 1.7 µM); in experiment [3] (setting [9]), 2 µg/mL (≈ 3.4 µM); in experiment [4] (setting [10]) it was 0.25 µg/mL (≈ 0.425 µM).

For the compound `C[C@@H](NC(=O)Cn1cnnn1)[C@H]1C(=O)N2C(C(=O)O)=C(S[C@@H]3CN[C@H](C(=O)N4C[C@H]5CC[C@@H](C4)[C@H]5N)C3)[C@H](C)[C@H]12` [Example 345, (4R,5S,6R)-6-((R) - 1-(2-(1H-tetrazol-1-yl)acetamido)ethyl)-3-((3S,5S)-5-((1R,5S,8S)-8-amino-3-azabicyclo[3.2.0]octane-3-carbonyl)pyrrolidin-3-ylthio)-4-methyl-7-oxo-1-azabicyclo[3.2.0]hept-2-ene-2-carboxylic acid], the MIC is 32 µg/mL (≈ 55.8 µM) in experiment [1] (setting [7]), 128 µg/mL (≈ 223 µM) in experiment [2] (setting [8]), 64 µg/mL (≈ 112 µM) in experiment [3] (setting [9]) and 8 µg/mL (≈ 13.9 µM) in experiment [4] (setting [10]).

With `C[C@@H](NC(=O)Cn1cnnn1)[C@H]1C(=O)N2C(C(=O)O)=C(S[C@@H]3CN[C@H](C(=O)N4CC5CC(NC(=N)N)CC5C4)C3)[C@H](C)[C@H]12` (stereo partly drawn) [Example 581, (4R,5S,6R)-6-((R)-1-(2-(1H-tetrazol-yl)acetamido)ethyl)-3-((3S,5S)-5-(5-guanidinooctahydroyclopenta[c]pyrrole-2-carbonyl)pyrrolidin-3-ylthio)-4-methyl-7-oxo-1-azabicyclo[3.2.0]hept-2-ene-2-carboxylic acid], the MIC in experiment [1] (setting [7]) was 8 µg/mL (≈ 13 µM); in experiment [2] (setting [8]) it was 64 µg/mL (≈ 104 µM); in experiment [3] (setting [9]), 8 µg/mL (≈ 13 µM); in experiment [4] (setting [10]) it was 0.5 µg/mL (≈ 0.812 µM).

Turning to `C[C@@H](NC(=O)Cn1cnnn1)[C@H]1C(=O)N2C(C(=O)[O-])=C(SCc3ccc(-c4cn(CCCN)[n+](C)c4)cc3)[C@H](C)[C@H]12` [Example 596, (4R,5S,6R)-6-((R)-1-(2-(1H-tetrazol-1-yl)acetamido)ethyl)-3-(4-(1-(3-aminopropyl)-2-methyl-1H-pyrazol-2-ium-4-yl)benzylthio)-4-methyl-7-oxo-1-azabicyclo[3.2.0]hept-2-ene-2-carboxylate], the MIC in experiment [1] (setting [7]) was 16 µg/mL (≈ 27.6 µM); in experiment [2] (setting [8]), 32 µg/mL (≈ 55.2 µM); in experiment [3] (setting [9]), 2 µg/mL (≈ 3.45 µM); in experiment [4] (setting [10]) it was 1 µg/mL (≈ 1.73 µM).

On to `C[C@@H](NS(=O)(=O)Cn1cnnn1)[C@H]1C(=O)N2C(C(=O)O)=C(S[C@@H]3CN[C@H](C(=O)N(C)C)C3)[C@H](C)[C@H]12` [Example 379, (4R,5S,6S)-6-((R)-1-((1H-tetrazol-1-yl)methylsulfonamido)ethyl)-3-((3S,5S)-5-(dimethylcarbamoyl)pyrrolidin-3-ylthio)-4-methyl-7-oxo-1-azabicyclo[3.2.0]hept-2-ene-2-carboxcylic acid], for which the MIC in experiment [1] (setting [5]) is 16 µg/mL (≈ 30.3 µM); in experiment [2] (setting [8]), above 128 µg/mL; in experiment [3] (setting [9]) it was 16 µg/mL (≈ 30.3 µM); in experiment [4] (setting [10]) it was 0.5 µg/mL (≈ 0.946 µM).

For the compound `C[C@@H](NC(=O)Cn1cnnn1)[C@H]1C(=O)N2C(C(=O)O)=C(S[C@@H]3CN[C@H](C(=O)N4CC5CCCNC5C4)C3)[C@H](C)[C@H]12` (single isomer, unassigned) [Example 459], the minimal inhibitory concentration (MIC) in experiment [1] (setting [5]) amounted to 1 µg/mL (≈ 1.74 µM); in experiment [2] (setting [6]) it was 2 µg/mL (≈ 3.49 µM); in experiment [3], 1 µg/mL (≈ 1.74 µM); in experiment [4] (ESBL −ve E. coli ATCC25922), 0.125 µg/mL (≈ 0.218 µM).

Consider `C[C@@H](NC(=O)Cn1cnnn1)[C@H]1C(=O)N2C(C(=O)O)=C(SC3CN(C(=N)N)C3)[C@H](C)[C@H]12` [Example 515, (4R,5S,6R)-6-((R)-1-(2-(1H-tetrazol-1-yl)acetamido)ethyl)-3-(1-carbamimidoylazetidin-3-ylthio)-4-methyl-7-oxo-1-azabicyclo[3.2.0]hept-2-ene-2-carboxylic acid], for which the minimal inhibitory concentration (MIC) was 1 µg/mL (≈ 2.22 µM) in experiment [1] (setting [7]), 16 µg/mL (≈ 35.6 µM) in experiment [2] (setting [8]), 2 µg/mL (≈ 4.45 µM) in experiment [3] (setting [9]) and 0.25 µg/mL (≈ 0.556 µM) in experiment [4] (setting [10]).

By MIC is commonly meant the smallest concentration in the dilution series that meets the test's criterion for growth inhibition.
